According to patent US20020137929A1, “1 - (3-heterocyclylphenyl) isothiourea, -isourea, -guanidine and -amidine herbicidal agents” (Intellectual Property Department, BASF Aktiengesellschaft, priority 1998, published 2002):

Key:
ABUTH (Velvetleaf) = test: Postemergence herbicidal evaluation; assay type: in vivo, Abutilon theophrasti
Outline: (§1)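 ~2-wk seedlings; postemergence spray, 40 psi; vehicle 1:1 acetone:water + 0.5% Tween 20; rate ≈0.0156–0.500 kg/ha; greenhouse hold; scored 4–5 wk after treatment, 0–9 scale vs control; repeat tests averaged.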

[1] = tested on: IPOHE (Morningglory, Ivyleaf); test: Postemergence herbicidal evaluation; assay type: in vivo, Ipomoea hederacea
Outline: as §1

[2] = tested on: TRZAWR (Wheat, Winter, cv Riband); test: Postemergence herbicidal evaluation; assay type: in vivo, Triticum aestivum
Outline: as §1

[3] = tested on: CHEAL (Lambsquarters, Common); test: Preemergence herbicidal evaluation; assay type: in vivo, Chenopodium album; conditions: rated 4-5 weeks after treatment
Outline: (§2)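 Scores (0–9) reflect visual comparison with control plants for stand, vigor, malformation, size and chlorosis. Compound was applied to the soil after sowing, before emergence, as an aqueous acetone spray (about 0.0156–0.500 kg/ha), and cups were kept in a greenhouse for 4–5 weeks.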

[4] = tested on: IPOHE (Morningglory, Ivyleaf); test: Preemergence herbicidal evaluation; assay type: in vivo, Ipomoea hederacea; conditions: rated 4-5 weeks after treatment
Outline: as §2

ECHCG (Barnyardgrass) = test: Preemergence herbicidal evaluation; assay type: in vivo, Echinochloa crus-galli; conditions: rated 4-5 weeks after treatment
Outline: as §2

SETVI (Foxtail, Green) = test: Preemergence herbicidal evaluation; assay type: in vivo, Setaria viridis; conditions: rated 4-5 weeks after treatment
Outline: as §2

ORYSAT (Rice, Tebonnet) = test: Preemergence herbicidal evaluation; assay type: in vivo, Oryza sativa, (L.) Tebonnet; conditions: rated 4-5 weeks after treatment
Outline: as §2

[5] = tested on: TRZAWR (Wheat, Winter, cv Riband); test: Preemergence herbicidal evaluation; assay type: in vivo, Triticum aestivum; conditions: rated 4-5 weeks after treatment
Outline: as §2

[6] = tested on: ECHORC (Watergrass (Calif.)); test: Preemergence weed control under flooded paddy conditions; assay type: in vivo, Echinochloa oryzoides; conditions: 0.2500 kg/ha, rated 3-4 weeks after treatment
Outline: (§3)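 Silt loam, seeds in top 0.5 cm; flood held 1.5-3 cm; test cpd as acetone/water 50/50 into flood water, ~0.0313-0.500 kg/ha a.i.; greenhouse 3-4 wk; visual 0-9 score vs control.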

MOOVA (Monochoria) = test: as above; assay type: in vivo, Monochoria vaginalis; conditions: 0.2500 kg/ha, rated 3-4 weeks after treatment
Outline: as §3

[7] = tested on: ECHORC (Watergrass (Calif.)); test: Postemergence weed control under flooded paddy conditions; assay type: in vivo, Echinochloa oryzoides; conditions: Rate 0.2500 kg/ha, postemergence weeds, rated 3 to 4 weeks after treatment
Outline: (§4)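 With weeds 3 to 5 cm tall and rice at the 1.5 to 2.5 leaf stage, containers were flooded and water held 1.5 to 3 cm above soil. Compounds in 50/50 v/v aqueous/acetone went into the flood water at about 0.0313 to 0.500 kg/ha a.i. Effects were visually rated 0–9 against controls after three to four weeks in the greenhouse.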

CYPIR (Rice Flatsedge) = test: as above; assay type: in vivo, Cyperus iria; conditions: Rate 0.2500 kg/ha, postemergence weeds, rated 3 to 4 weeks after treatment
Outline: as §4

Cn1c(C(F)(F)F)cc(=O)n(-c2cc(/N=C3/SC(CC(=O)O)C(=O)N3CC(=O)O)c(Cl)cc2F)c1=O (stereo not shown) [Compound 61, 2-{{2-Chloro-5-[3,6-dihydro-3-methyl-2,6-dioxo-4-(trifluoromethyl)-1(2H)-pyrimidinyl]-4-fluorophenyl}imino}-4-oxo-3,5-thiazolidinediacetic acid]
2.0: Postemergence herbicidal rating IPOHE ([1]; Rate 0.0315 kg/ha)
0.0: Postemergence herbicidal rating ABUTH (ABUTH (Velvetleaf); Rate 0.0158 kg/ha) | Postemergence herbicidal rating ABUTH (ABUTH (Velvetleaf); Rate 0.0315 kg/ha) | Postemergence herbicidal rating ABUTH (ABUTH (Velvetleaf); Rate 0.0630 kg/ha) | Preemergence herbicidal rating IPOHE ([4]; rate 0.1250 kg/ha) | Preemergence herbicidal rating IPOHE ([4]; rate 0.2500 kg/ha) | Preemergence herbicidal rating ECHCG (ECHCG (Barnyardgrass); rate 0.1250 kg/ha) | Preemergence herbicidal rating ECHCG (ECHCG (Barnyardgrass); rate 0.2500 kg/ha) | Preemergence herbicidal rating SETVI (SETVI (Foxtail, Green); rate 0.1250 kg/ha) | Preemergence herbicidal rating ORYSAT (ORYSAT (Rice, Tebonnet); rate 0.1250 kg/ha) | Preemergence herbicidal rating TRZAWR ([5]; rate 0.1250 kg/ha) | ECHORC herbicidal effect rating [6] | MOOVA herbicidal effect rating (MOOVA (Monochoria)) | Herbicidal rating ECHORC [7] | Herbicidal rating CYPIR (CYPIR (Rice Flatsedge))
9.0: Preemergence herbicidal rating CHEAL ([3]; rate 0.2500 kg/ha)
1.5: Postemergence herbicidal rating TRZAWR ([2]; Rate 0.0630 kg/ha)
1.0: Postemergence herbicidal rating IPOHE ([1]; Rate 0.0158 kg/ha) | Postemergence herbicidal rating IPOHE ([1]; Rate 0.0630 kg/ha) | Preemergence herbicidal rating SETVI (SETVI (Foxtail, Green); rate 0.2500 kg/ha) | Preemergence herbicidal rating ORYSAT (ORYSAT (Rice, Tebonnet); rate 0.2500 kg/ha) | Preemergence herbicidal rating TRZAWR ([5]; rate 0.2500 kg/ha)
7.0: Preemergence herbicidal rating CHEAL ([3]; rate 0.1250 kg/ha)
0.5: Postemergence herbicidal rating TRZAWR ([2]; Rate 0.0158 kg/ha) | Postemergence herbicidal rating TRZAWR ([2]; Rate 0.0315 kg/ha)
